Source: patent US20210228545A1, “METHODS OF TREATING CONDITIONS RELATED TO THE S1P1 RECEPTOR” (Arena Pharmaceuticals, Inc., priority 2018, published 2021)
Entries after “also recorded” stand apart in the source; their conditions may differ.

How the values were obtained:
OAT1 = target: T1, OAT1 (Homo sapiens, UniProt Q4U2R8); test: Transporter inhibition, HEK293 cells; type: in vitro ADME
T1 construct: expressed in transfected cells; host or cells: HEK293
T1 sequence (Q4U2R8 1-563): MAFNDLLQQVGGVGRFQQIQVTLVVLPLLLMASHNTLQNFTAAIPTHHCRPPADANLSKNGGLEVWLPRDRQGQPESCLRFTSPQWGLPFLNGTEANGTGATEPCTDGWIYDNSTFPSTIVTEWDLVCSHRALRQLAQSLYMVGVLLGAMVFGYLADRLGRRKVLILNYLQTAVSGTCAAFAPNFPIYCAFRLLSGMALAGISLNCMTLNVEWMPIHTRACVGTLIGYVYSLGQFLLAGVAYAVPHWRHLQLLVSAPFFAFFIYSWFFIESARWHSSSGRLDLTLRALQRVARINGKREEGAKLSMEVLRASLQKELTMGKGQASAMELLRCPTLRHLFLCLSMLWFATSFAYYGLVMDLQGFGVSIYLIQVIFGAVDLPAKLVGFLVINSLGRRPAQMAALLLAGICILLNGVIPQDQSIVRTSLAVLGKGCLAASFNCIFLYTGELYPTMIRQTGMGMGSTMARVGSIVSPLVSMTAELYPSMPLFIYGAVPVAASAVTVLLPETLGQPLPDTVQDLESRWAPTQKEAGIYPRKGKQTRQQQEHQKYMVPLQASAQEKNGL

CYP enzymes = test: Metabolism-dependent inhibition of CYP enzymes in human liver microsomes; type: in vitro ADME; details: 30 min preincubation with NADPH-regenerating system
Excerpt: Known metabolism-dependent and/or direct inhibitors of CYP and UGT enzymes were included as positive controls, as applicable.

OCT1 = target: T2, OCT1 (Homo sapiens, UniProt O15245); test: Transporter inhibition, HEK293 cells; type: in vitro ADME
T2 construct: expressed in transfected cells; host or cells: HEK293
T2 sequence (O15245 1-554): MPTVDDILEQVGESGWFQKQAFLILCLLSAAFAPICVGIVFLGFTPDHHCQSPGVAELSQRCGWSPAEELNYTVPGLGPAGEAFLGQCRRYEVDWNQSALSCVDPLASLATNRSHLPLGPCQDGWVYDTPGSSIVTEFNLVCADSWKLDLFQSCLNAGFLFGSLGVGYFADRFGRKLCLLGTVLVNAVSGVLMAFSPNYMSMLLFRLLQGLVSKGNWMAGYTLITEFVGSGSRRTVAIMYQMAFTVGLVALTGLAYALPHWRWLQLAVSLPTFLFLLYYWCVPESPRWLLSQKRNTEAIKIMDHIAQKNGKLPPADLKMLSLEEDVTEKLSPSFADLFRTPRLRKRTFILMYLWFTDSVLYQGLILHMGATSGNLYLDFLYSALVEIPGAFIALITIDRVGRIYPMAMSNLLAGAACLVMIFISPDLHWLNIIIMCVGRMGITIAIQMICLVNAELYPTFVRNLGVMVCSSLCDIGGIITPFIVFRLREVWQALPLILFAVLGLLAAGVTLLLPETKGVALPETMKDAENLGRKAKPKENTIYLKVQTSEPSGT

OATP1B1 = target: T3, OATP1B1 (Homo sapiens, UniProt Q9Y6L6); test: Transporter inhibition, HEK293 cells
T3 sequence (Q9Y6L6 1-691): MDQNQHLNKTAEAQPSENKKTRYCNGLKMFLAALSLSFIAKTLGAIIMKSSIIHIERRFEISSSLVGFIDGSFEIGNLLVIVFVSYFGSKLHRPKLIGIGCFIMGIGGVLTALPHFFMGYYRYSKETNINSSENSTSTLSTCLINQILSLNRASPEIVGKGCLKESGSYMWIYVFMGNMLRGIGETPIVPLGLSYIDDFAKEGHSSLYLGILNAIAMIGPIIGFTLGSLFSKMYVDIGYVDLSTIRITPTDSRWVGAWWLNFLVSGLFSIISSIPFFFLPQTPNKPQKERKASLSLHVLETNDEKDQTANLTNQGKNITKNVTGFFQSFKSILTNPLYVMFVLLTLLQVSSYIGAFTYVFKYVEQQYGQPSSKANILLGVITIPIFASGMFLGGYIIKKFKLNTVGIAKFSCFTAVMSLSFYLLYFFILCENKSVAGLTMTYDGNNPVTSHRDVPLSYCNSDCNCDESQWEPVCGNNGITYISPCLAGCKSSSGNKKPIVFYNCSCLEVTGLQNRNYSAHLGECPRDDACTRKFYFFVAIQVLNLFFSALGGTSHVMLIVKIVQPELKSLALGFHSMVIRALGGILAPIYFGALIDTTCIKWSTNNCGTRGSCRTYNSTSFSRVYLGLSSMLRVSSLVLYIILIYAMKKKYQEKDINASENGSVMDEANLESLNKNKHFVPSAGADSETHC

rCYP2C8 = rCYP2C8 (Homo sapiens, UniProt P10632); test: Compound 1 loss on incubation with rCYP enzymes; type: in vitro ADME; details: 120 minutes of incubation
rCYP2C8, sequence (P10632 whole entry): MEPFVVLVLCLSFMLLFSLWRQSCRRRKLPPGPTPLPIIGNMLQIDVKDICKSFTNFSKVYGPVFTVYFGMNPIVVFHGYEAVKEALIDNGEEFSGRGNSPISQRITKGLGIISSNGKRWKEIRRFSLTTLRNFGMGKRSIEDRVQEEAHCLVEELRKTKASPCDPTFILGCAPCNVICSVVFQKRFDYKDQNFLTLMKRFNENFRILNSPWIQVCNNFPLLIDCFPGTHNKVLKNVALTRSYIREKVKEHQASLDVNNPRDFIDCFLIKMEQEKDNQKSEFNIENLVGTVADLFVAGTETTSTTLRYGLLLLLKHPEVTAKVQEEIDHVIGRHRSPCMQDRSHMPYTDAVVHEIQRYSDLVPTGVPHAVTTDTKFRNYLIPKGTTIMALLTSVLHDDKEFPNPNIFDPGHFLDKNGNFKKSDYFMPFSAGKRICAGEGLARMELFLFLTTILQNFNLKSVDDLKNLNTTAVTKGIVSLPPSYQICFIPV

CYP1A2 mRNA = test: CYP induction in cultured human hepatocytes; type: in vitro ADME; details: up to 10 μM
[1] = In vitro metabolism studies and human mass balance clinical study; type: in vivo; details: oxidative (CYP2C8, CYP2C9) and conjugation (UGT1A7, minor UGT1A1, UGT1A4) pathways
Excerpt: Compound 1 is eliminated from the systemic circulation mainly due to metabolism and biliary/fecal excretion.

P-gp = P-gp (Homo sapiens, UniProt P08183); test: Transporter substrate evaluation, MDCKII-P-gp cells; type: in vitro ADME; parameters: expressed in transfected cells; host or cells: MDCKII (Madin-Darby canine kidney) cells
P-gp, sequence (P08183 whole entry): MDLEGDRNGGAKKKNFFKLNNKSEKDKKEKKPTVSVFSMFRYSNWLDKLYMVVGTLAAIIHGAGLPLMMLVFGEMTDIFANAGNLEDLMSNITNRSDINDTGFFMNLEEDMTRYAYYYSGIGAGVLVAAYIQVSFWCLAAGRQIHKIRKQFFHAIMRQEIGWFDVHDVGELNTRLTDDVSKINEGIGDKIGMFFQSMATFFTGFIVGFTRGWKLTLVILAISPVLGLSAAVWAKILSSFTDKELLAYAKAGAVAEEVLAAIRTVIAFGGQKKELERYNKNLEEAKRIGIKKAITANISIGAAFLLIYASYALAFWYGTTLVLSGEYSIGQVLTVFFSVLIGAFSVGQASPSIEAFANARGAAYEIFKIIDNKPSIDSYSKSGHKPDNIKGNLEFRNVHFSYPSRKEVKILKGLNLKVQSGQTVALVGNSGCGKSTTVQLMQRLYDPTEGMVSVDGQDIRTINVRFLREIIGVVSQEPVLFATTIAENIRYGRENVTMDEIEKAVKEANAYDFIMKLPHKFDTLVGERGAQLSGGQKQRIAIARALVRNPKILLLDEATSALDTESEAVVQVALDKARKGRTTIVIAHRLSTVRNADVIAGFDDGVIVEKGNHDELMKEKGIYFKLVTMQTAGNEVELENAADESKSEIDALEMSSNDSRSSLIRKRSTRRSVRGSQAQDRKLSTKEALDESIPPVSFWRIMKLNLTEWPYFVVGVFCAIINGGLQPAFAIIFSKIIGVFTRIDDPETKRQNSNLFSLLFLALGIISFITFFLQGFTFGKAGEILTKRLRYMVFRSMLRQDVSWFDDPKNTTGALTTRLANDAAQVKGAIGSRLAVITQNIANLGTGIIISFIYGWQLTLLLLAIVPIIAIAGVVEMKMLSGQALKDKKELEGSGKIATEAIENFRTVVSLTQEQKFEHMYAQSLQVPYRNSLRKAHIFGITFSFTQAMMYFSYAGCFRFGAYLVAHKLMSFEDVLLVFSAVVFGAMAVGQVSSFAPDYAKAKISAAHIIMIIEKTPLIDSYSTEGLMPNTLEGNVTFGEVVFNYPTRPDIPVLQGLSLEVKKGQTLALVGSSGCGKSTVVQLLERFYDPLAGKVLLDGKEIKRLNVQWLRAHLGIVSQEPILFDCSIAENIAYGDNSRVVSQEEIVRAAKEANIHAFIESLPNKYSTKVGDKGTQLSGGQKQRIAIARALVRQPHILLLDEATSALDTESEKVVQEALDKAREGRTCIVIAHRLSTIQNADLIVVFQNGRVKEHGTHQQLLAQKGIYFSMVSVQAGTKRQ

MATE2-K = target: T4, MATE2-K (Homo sapiens, UniProt Q86VL8); test: Transporter inhibition, HEK293 cells; type: in vitro ADME
T4 construct: expressed in transfected cells; host or cells: HEK293
T4 sequence (Q86VL8 1-566 isoform Q86VL8-3): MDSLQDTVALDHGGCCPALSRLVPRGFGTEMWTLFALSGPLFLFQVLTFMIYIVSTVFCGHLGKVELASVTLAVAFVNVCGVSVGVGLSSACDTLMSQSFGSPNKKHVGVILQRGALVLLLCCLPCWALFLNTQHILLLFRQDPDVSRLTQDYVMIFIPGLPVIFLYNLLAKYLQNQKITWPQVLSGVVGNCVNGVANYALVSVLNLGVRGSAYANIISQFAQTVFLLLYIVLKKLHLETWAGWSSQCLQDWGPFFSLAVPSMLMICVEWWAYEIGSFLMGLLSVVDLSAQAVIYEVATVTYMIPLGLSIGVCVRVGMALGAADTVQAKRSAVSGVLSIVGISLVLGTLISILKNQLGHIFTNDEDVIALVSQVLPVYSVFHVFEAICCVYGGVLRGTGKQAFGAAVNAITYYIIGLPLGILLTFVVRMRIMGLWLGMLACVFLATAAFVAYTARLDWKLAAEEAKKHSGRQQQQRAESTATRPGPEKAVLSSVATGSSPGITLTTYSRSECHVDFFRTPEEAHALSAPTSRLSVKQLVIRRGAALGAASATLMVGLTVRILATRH

CYP2B6 = test: CYP induction in cultured human hepatocytes; type: in vitro ADME; details: criteria >2-fold mRNA increase and ≥20% of positive control
MATE1 = target: T5, MATE1 (Homo sapiens, UniProt Q96FL8); test: Transporter inhibition, HEK293 cells; type: in vitro ADME
T5 construct: expressed in transfected cells; host or cells: HEK293
T5 sequence (Q96FL8 whole entry): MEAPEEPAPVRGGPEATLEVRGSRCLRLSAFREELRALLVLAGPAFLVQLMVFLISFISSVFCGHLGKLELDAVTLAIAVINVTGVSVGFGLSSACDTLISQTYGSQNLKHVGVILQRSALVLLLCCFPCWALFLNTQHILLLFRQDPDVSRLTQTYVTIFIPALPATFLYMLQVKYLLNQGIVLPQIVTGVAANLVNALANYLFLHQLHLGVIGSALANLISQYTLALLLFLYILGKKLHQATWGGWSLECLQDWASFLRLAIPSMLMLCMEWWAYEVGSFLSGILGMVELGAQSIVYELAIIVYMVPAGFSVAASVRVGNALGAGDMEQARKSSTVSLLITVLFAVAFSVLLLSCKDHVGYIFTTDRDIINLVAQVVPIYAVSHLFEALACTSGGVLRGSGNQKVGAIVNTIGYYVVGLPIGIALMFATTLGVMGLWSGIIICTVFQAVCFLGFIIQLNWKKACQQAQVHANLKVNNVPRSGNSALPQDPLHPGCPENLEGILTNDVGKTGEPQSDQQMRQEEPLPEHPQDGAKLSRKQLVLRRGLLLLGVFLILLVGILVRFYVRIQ

[2] = HEK293 cells, [14C]-metformin (10 μM), 1 and 10 μM tested

O=C(O)C[C@H]1CCc2c1[nH]c1ccc(OCc3ccc(C4CCCC4)c(C(F)(F)F)c3)cc21 [Compound 1, (R)-2-(7-(4-cyclopentyl-3-(trifluoromethyl)benzyloxy)-1,2,3,4-tetrahydrocyclopenta[b]indol-3-yl)acetic acid]
Reduction of uptake rate of p-aminohippurate into OAT1-expressing cells (inhibition) (OAT1; 1 and 10 μM): less than 50% | IC50 (OAT1; HEK293 cells, [3H]-p-aminohippurate (1 μM), 1 and 10 μM tested): > 10 µM | Metabolism-dependent inhibition of CYPs (CYP enzymes): little or no evidence of metabolism-dependent inhibition | Reduction of uptake rate of tetraethylammonium bromide into OCT1-expressing cells (inhibition) (OCT1; 1 and 10 μM): less than 50% | IC50 (OCT1; HEK293 cells, [14C]-tetraethylammonium bromide (5 μM), 1 and 10 μM tested): > 10 µM | OATP1B1 inhibition (OATP1B1; 1 μM Compound 1): no OATP1B1 inhibition | Reduction of uptake rate of [3H]-estradiol-17β-glucuronide (50 nM) into OATP1B1-expressing cells (OATP1B1; 10 μM Compound 1): ~50% | Compound 1 loss with rCYP2C8 (rCYP2C8): up to 75% | Induction potential on CYP1A2 mRNA (CYP1A2 mRNA): no induction potential; also recorded: not a potential inducer | Extent of metabolism (overall) [1]: > 25% | efflux ratio at 1 μM (P-gp; MDCK-MDR1, 1 μM): 1.12 | efflux ratio at 10 μM (P-gp; MDCK-MDR1, 10 μM): 3.17 | recovery (P-gp; MDCK-MDR1, MDCKII-P-gp assay): 18 to 60% | IC50 (MATE2-K; [2]): > 10 µM | Inhibition of MATE2-K (MATE2-K; up to 10 μM): less than 50% | Induction potential for CYP2B6 (CYP2B6): no induction potential; also recorded: not a potential inducer | IC50 (MATE1; [2]): > 10 µM | Inhibition of MATE1 (MATE1; up to 10 μM): less than 50%
